Experimental data from US10544106B2, “Certain chemical entities, compositions, and methods” (NeuPharma, Inc., priority 2016, dated 2020).

Biological target: BTK (Homo sapiens (Human), UniProt Q06187)
Test: Z'-LYTE kinase inhibition assay against BTK
Type: biochemical
Details: for IC50: series of concentrations, GraphPad Prism 5
Method in brief: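 Z′-LYTE FRET readout: 1.04-10.4 ng BTK with 2 μM Tyr 01 peptide, ATP at Km, in 50 mM HEPES pH 7.5, 10 mM MgCl2, 1 mM EGTA, 0.01% BRIJ-35, 1% DMSO. 60 min kinase reaction at room temperature, then 60 min development; IC50 from 10-point, 3-fold titrations.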

[1] = compound at 100 nM, ATP concentration at Km

BTK, sequence (Q06187 whole entry): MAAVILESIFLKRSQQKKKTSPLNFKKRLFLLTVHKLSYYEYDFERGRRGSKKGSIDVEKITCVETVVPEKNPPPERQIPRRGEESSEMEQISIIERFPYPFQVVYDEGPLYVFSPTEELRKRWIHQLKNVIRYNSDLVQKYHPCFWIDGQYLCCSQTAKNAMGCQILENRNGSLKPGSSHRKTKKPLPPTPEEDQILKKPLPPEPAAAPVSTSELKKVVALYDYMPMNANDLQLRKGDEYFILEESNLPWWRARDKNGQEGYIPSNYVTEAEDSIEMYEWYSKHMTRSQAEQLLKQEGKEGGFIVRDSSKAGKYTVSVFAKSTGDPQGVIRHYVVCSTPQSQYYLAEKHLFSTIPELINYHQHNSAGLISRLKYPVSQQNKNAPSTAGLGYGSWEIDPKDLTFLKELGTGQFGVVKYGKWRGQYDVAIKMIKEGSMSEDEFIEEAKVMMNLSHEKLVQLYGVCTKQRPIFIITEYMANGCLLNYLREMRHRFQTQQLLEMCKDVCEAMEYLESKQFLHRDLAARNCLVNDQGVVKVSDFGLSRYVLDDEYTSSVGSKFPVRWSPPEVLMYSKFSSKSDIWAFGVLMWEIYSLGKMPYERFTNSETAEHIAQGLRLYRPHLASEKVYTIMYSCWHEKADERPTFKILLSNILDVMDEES

SMILES	inhibition at 0.1 µM [1] [%]	IC50 [µM]	% Inhibition against BTK [1]
C=CC(=O)N1CCC(c2cc(-c3ccc(Oc4ccccn4)cc3OC)n3cnccc23)C1 (stereo not drawn) [C169, 1-(3-(7-(2-methoxy-4-(pyridin-2-yloxy)phenyl)pyrrolo[1,2-c]pyrimidin-5-yl)pyrrolidin-1-yl)prop-2-en-1-one]	< 50	–	–
C=CC(=O)Nc1cccc(-c2cc(-c3ccc(C(=O)Nc4cc(C#N)ccn4)c(OC)c3)cc3cncnc23)c1 [C156, 4-(8-(3-acrylamidophenyl)quinazolin-6-yl)-N-(4-cyanopyridin-2-yl)-2-methoxybenzamide]	< 50	–	–
C=CC(=O)N1CCCC(n2c(-c3ccccc3)nc3cncnc32)C1 (stereo not drawn) [C012, 1-(3-(8-phenyl-9H-purin-9-yl)piperidin-1-yl)prop-2-en-1-one]	< 50	–	–
CC#CC(=O)N1CCC(c2nc(-c3ccc(Oc4cc(C(F)(F)F)ccn4)c(OC)c3)n3c(N)nccc23)C1 (stereo not drawn) [C222, 1-(3-(5-amino-3-(3-methoxy-4-((4-(trifluoro-methyl)pyridin-2-yl)oxy)phenyl)imidazo[1,5-c]pyrimidin-1-yl)pyrrolidin-1-yl)but-2-yn-1-one]	> 50	–	–
C=CC(=O)Nc1cccc(-c2cc(-c3ccc(Oc4ccccc4)cc3)c(N)c3cncnc23)c1 [C182, N-(3-(5-amino-6-(4-phenoxyphenyl)quinazolin-8-yl)phenyl)acrylamide]	< 50	–	–
C=CC(=O)Nc1cccc(-c2cc(-c3cccc(Nc4cccc(C(F)(F)F)c4)c3)cc3cncnc23)c1 [C011, N-(3-(6-(3-((3-(trifluoromethyl)phenyl)amino)phenyl)quinazolin-8-yl)phenyl)acrylamide]	< 50	–	–
C=CC(=O)Nc1cccc(-c2cc(-c3ccccc3)cc3cncnc23)c1 [C004, N-(3-(6-phenylquinazolin-8-yl)phenyl)acrylamide]	> 50	< 0.1	–
C=CC(=O)N1CCC(c2cc(-c3ccc(C(=O)Nc4ccccn4)cc3)n3cnccc23)C1 (stereo not drawn) [C046, 4-(5-(1-acryloylpyrrolidin-3-yl)pyrrolo[1,2-c]pyrimidin-7-yl)-N-(pyridin-2-yl)benzamide]	< 50	–	–
C=CC(=O)Nc1cccc(-c2cc(-c3ccc(C)nc3)cc3cncnc23)c1 [C010, N-(3-(6-(6-methylpyridin-3-yl)quinazolin-8-yl)phenyl)acrylamide]	> 50	–	–
C=CC(=O)Nc1cccc(-c2cc(-c3ccc(Oc4cccnc4)cc3)cc3cncnc23)c1 [C117, N-(3-(6-(4-(pyridin-3-yloxy)phenyl)quinazolin-8-yl)phenyl)acrylamide]	> 50	< 0.1	–
C=CC(=O)Nc1cccc(-c2cc(-c3ccc(C(=O)Nc4ccccn4)c(OC)c3)cc3cncnc23)c1 [C141, 4-(8-(3-acrylamidophenyl)quinazolin-6-yl)-2-methoxy-N-(pyridin-2-yl)benzamide]	< 50	–	–
C=CC(=O)N1CCC(c2cc(-c3ccc(C(=O)Nc4ccncc4)cc3)cc3cncnc23)C1 (stereo not drawn) [C155, 4-(8-(1-acryloylpyrrolidin-3-yl)quinazolin-6-yl)-N-(pyridin-4-yl)benzamide]	< 50	–	–
C=CC(=O)Nc1cccc(-c2cc(-c3ccc(C(=O)Nc4ccccn4)cc3)n3cnccc23)c1 [C044, 4-(5-(3-acrylamidophenyl)pyrrolo[1,2-c]pyrimidin-7-yl)-N-(pyridin-2-yl)benzamide]	< 50	–	–
C=CC(=O)N1CCC(n2c(-c3ccccc3Cl)nc3cncnc32)C1 (stereo not drawn) [C033, 1-(3-(8-(2-chlorophenyl)-9H-purin-9-yl)pyrrolidin-1-yl)prop-2-en-1-one]	< 50	–	–
C=CC(=O)N1CCC(c2cc(-c3ccc(C(=O)Nc4cc(C5CC5)ccn4)c(F)c3)n3cnccc23)C1 (stereo not drawn) [C165, 4-(5-(1-acryloylpyrrolidin-3-yl)pyrrolo[1,2-c]pyrimidin-7-yl)-N-(4-cyclopropylpyridin-2-yl)-2-fluorobenzamide]	< 50	–	–
C=CC(=O)Nc1cccc(-c2cc(-c3ccc(C(=O)Nc4ccccc4)cc3F)cc3cncnc23)c1 [C089, 4-(8-(3-Acrylamidophenyl)quinazolin-6-yl)-3-fluoro-N-phenylbenzamide]	> 50	–	–
C=CC(=O)N1CCC(c2cc(-c3ccc(C(=O)Nc4cc(C5CC5)ccn4)cc3F)n3cnccc23)C1 (stereo not drawn) [C149, 4-(5-(1-acryloylpyrrolidin-3-yl)pyrrolo[1,2-c]pyrimidin-7-yl)-N-(4-cyclopropylpyridin-2-yl)-3-fluorobenzamide]	< 50	–	–
C=CC(=O)N1CCC(c2cc(-c3ccc(Oc4ccccn4)cc3OC)cc3cncnc23)C1 (stereo not drawn) [C133, 1-(3-(6-(2-methoxy-4-(pyridin-2-yloxy)phenyl)quinazolin-8-yl)pyrrolidin-1-yl)prop-2-en-1-one]	< 50	–	–

SMILES	inhibition at 0.1 µM [1] [%]	IC50 [µM]	% Inhibition against BTK [1]
C=CC(=O)Nc1cccc(-c2cc(-c3ccc(Nc4ccccc4)cc3)cc3cncnc23)c1 [C025, N-(3-(6-(4-(phenylamino)phenyl)quinazolin-8-yl)phenyl)acrylamide]	< 50	–	–
C=CC(=O)N1CCC(c2cc(-c3ccc(Oc4ccccn4)c(OC)c3)cc3cncnc23)C1 (stereo not drawn) [C146, 1-(3-(6-(3-methoxy-4-(pyridin-2-yloxy)phenyl)quinazolin-8-yl)pyrrolidin-1-yl)prop-2-en-1-one]	< 50	–	–
C=CC(=O)N1CCC(c2cc(-c3ccc(Oc4ccccn4)cc3F)c(N)c3cncnc23)C1 (stereo not drawn) [C174, 1-(3-(5-amino-6-(2-fluoro-4-(pyridin-2-yloxy)phenyl)quinazolin-8-yl)pyrrolidin-1-yl)prop-2-en-1-one]	< 50	–	–
C=CC(=O)Nc1cccc(-c2cc(-c3cncc(F)c3)cc3cnc(N)nc23)c1 [C111, N-(3-(2-amino-6-(5-fluoropyridin-3-yl)quinazolin-8-yl)phenyl)acrylamide]	> 50	< 0.1	–
C=CC(=O)Nc1cccc(-c2cc(-c3ccc(C(=O)Nc4cccc(C)c4)nc3)cc3cncnc23)c1 [C070, 5-(8-(3-acrylamidophenyl)quinazolin-6-yl)-N-(m-tolyl)picolinamide]	< 50	–	–
C=CC(=O)N1CCC(c2nc(-c3ccc(Oc4ccccn4)cc3)n3c(N)nccc23)C1 (racemic) [C225, (S/R)-1-(3-(5-amino-3-(4-(pyridin-2-yloxy)phenyl)imidazo[1,5-c]pyrimidin-1-yl)pyrrolidin-1-yl)prop-2-en-1-one]	–	< 0.1	++ (more than 50% inhibition)
C=CC(=O)N1CCC(c2cc(-c3ccc(C(=O)Nc4ccccn4)cc3Cl)cc3cncnc23)C1 (stereo not drawn) [C067, 4-(8-(1-acryloylpyrrolidin-3-yl)quinazolin-6-yl)-3-chloro-N-(pyridin-2-yl)benzamide]	> 50	< 0.1	–
CC#CC(=O)N1CCC(c2nc(-c3ccc(Oc4cc(C(F)(F)F)ccn4)c(F)c3)n3c(N)nccc23)C1 (stereo not drawn) [C207, 1-(3-(5-amino-3-(3-fluoro-4-((4-(trifluoro-methyl)pyridin-2-yl)oxy)phenyl)imidazo[1,5-c]pyrimidin-1-yl)pyrrolidin-1-yl)but-2-yn-1-one]	> 50	–	–
CC#CC(=O)N1CCC(c2nc(-c3ccc(C(=O)Nc4ccccn4)cc3)n3c(N)ncnc23)C1 (stereo not drawn) [C205, 4-(4-amino-8-(1-(but-2-ynoyl)pyrrolidin-3-yl)imidazo[1,5-a][1,3,5]triazin-6-yl)-N-(pyridin-2-yl)benzamide]	> 50	–	–
CC#CC(=O)N1CCC(c2nc(-c3ccc(Oc4ncccc4C(F)(F)F)cc3)n3c(N)nccc23)C1 (stereo not drawn) [C219, 1-(3-(5-amino-3-(4-((3-(trifluoromethyl)pyridin-2-yl)oxy)phenyl)imidazo[1,5-c]pyrimidin-1-yl)pyrrolidin-1-yl)but-2-yn-1-one]	< 50	–	–
C=CC(=O)N1CCC(c2cc(-c3ccc(Oc4ccccn4)cc3F)cc3cnc(N)nc23)C1 (stereo not drawn) [C144, 1-(3-(2-amino-6-(2-fluoro-4-(pyridin-2-yloxy)phenyl)quinazolin-8-yl)pyrrolidin-1-yl)prop-2-en-1-one]	< 50	–	–
C=CC(=O)N1CCC(c2cc(-c3ccc(C(=O)Nc4cc(C(F)(F)F)ccn4)cc3)cc3cncnc23)C1 (stereo not drawn) [C125, 4-(8-(1-acryloylpyrrolidin-3-yl)quinazolin-6-yl)-N-(4-(trifluoromethyl)pyridin-2-yl)benzamide]	> 50	–	–
C=CC(=O)Nc1cccc(-c2cc(-c3ccc(C(=O)Nc4cc(C5CC5)ccn4)c(OC)c3)cc3cncnc23)c1 [C140, 4-(8-(3-acrylamidophenyl)quinazolin-6-yl)-N-(4-cyclopropylpyridin-2-yl)-2-methoxybenzamide]	< 50	–	–
C=CC(=O)Nc1cccc(-c2cc(-c3ccc(Oc4ccccn4)cc3F)cc3cnc(N)nc23)c1 [C157, N-(3-(2-amino-6-(2-fluoro-4-(pyridin-2-yloxy)phenyl)quinazolin-8-yl)phenyl)acrylamide]	> 50	< 0.1	–
C=CC(=O)N1CCC=C(c2cc(-c3ccc(C(=O)Nc4ccccn4)cc3)cc3cncnc23)C1 [C009, 4-(8-(1-acryloyl-1,2,5,6-tetrahydropyridin-3-yl)quinazolin-6-yl)-N-(pyridin-2-yl)benzamide]	< 50	–	–
C=CC(=O)Nc1cccc(-c2cc(-c3ccc(Oc4cc(C(F)(F)F)ccn4)cc3)cc3cnc(N)nc23)c1 [C098, N-(3-(2-amino-6-(4-((4-(trifluoromethyl)pyridin-2-yl)oxy)phenyl)quinazolin-8-yl)phenyl)acrylamide]	< 50	–	–
CC#CC(=O)N1CCC(c2nc(-c3ccc(C(=O)Nc4cc(C5CC5)ccn4)c(F)c3)n3c(N)nccc23)C1 (stereo not drawn) [C247, 4-(5-amino-1-(1-(but-2-ynoyl)pyrrolidin-3-yl)imidazo[1,5-c]pyrimidin-3-yl)-N-(4-cyclopropylpyridin-2-yl)-2-fluorobenzamide]	–	< 0.1	–
C=CC(=O)N1CCC(c2cc(-c3ccc(Oc4ccccc4)nc3)cc3cncnc23)C1 (stereo not drawn) [C077, 1-(3-(6-(6-phenoxypyridin-3-yl)quinazolin-8-yl)pyrrolidin-1-yl)prop-2-en-1-one]	< 50	–	–
